Source: patent US12661410B2, “Compounds for targeted degradation of RET” (C4 Therapeutics, Inc., priority 2020, dated 2026)
Where a chain is given by its changes, count along the chain named. Where two headings read alike, the source gives them in different places.

Key:
RET(KD: 658-1114 G810R) = biological target: T1, RET(KD: 658-1114 G810R) (Homo sapiens, UniProt P07949, G810R); experiment: HiBiT-Degradation, RET G810R degradation assay (Nano-Glo HiBiT Lytic), 293T.165 cells; format: cell-based; settings: for Emax / DC50: 6.0 hours; for Emax: % remaining protein, read-out: 293T.165 RET(KD: 658-1114 G810R) 6.0 hours (Emax); for DC50: read-out: 293T.165 RET(KD: 658-1114 G810R) 6.0 hours (DC50)
T1 construct: 658-1114; expressed in transfected cells; host or cells: 293T.165 (293T cells, generated in-house)
T1 sequence (P07949 658-1114 G810R): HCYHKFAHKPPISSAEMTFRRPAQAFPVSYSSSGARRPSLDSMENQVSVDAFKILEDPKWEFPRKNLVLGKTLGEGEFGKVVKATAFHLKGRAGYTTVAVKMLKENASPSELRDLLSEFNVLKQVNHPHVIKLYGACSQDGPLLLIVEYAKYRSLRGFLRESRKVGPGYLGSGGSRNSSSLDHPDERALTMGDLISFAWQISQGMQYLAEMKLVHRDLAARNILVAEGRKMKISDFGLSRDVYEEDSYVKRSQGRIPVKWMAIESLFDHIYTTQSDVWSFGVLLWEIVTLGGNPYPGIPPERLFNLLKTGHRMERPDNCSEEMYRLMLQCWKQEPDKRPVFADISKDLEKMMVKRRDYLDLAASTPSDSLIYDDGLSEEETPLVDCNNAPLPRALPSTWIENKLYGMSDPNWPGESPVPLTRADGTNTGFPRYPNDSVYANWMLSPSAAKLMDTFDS
In short: (§1)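 Engineered 293T cells carry a HiBiT tag on the RET kinase domain, either wild type (line 293T.144) or G810R (line 293T.165). Compounds act for 6 h across a 10 μM-top, half-log 11-point range. Lytic HiBiT luminescence gives remaining protein, fitted for DC50 and Emax.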

RET (658-1114) = biological target: T2, RET (658-1114) (Homo sapiens, UniProt P07949); experiment: HiBiT-Degradation, RET wild-type degradation assay (Nano-Glo HiBiT Lytic), 293T.144 cells; format: cell-based; settings: for Emax / DC50: 6.0 hours; for Emax: read-out: 293T.144 RET (658-1114) 6.0 hours (Emax); for DC50: read-out: 293T.144 RET (658-1114) 6.0 hours (DC50)
T2 construct: 658-1114; expressed in transfected cells; host or cells: 293T.144 (293T cells, generated in-house)
T2 sequence (P07949 658-1114): T1 sequence (P07949 658-1114 G810R) with R153G
In short: as §1

[1] = half-maximal degradation concentration

Row | 293T.165 RET(KD: 658-1114 G810R) 6.0 hours (IP) [nM] (RET(KD: 658-1114 G810R)) | Emax (RET(KD: 658-1114 G810R)) | DC50 (RET(KD: 658-1114 G810R); [1]) | 293T.144 RET (658-1114) 6.0 hours (IP) [nM] (RET (658-1114)) | Emax (RET (658-1114); % remaining protein) | DC50 (RET (658-1114); [1]) | 293T.165 RET(KD: 658-1114 G810R) 6.0 hours (Emax) (RET(KD: 658-1114 G810R); HiBiT-Degradation) | 293T.165 RET(KD: 658-1114 G810R) 6.0 hours (IP) [nM] (RET(KD: 658-1114 G810R); HiBiT-Degradation) | DC50 (RET(KD: 658-1114 G810R); HiBiT-Degradation) | 293T.144 RET (658-1114) 6.0 hours (IP) [nM] (RET (658-1114); HiBiT-Degradation) | DC50 (RET (658-1114); HiBiT-Degradation) | Emax (RET (658-1114); HiBiT-Degradation) | Structure (SMILES)
1 | ++++ (<50 nM = ++++) | < 50% | < 0.05 µM | ++++ (<50 nM = ++++) | < 30% | < 0.05 µM |  |  |  |  |  |  | CCC1(C(=O)NC2CCC2)CCN(c2ccc(-c3nc(-c4cnn([C@H]5C[C@H](CN6CCN(c7ccc(N[C@H]8CCC(=O)NC8=O)cc7F)CC6)C5)c4)cn4ncc(C#N)c34)cn2)CC1 [Compound 188, 1-[5-[3-cyano-6-[1-[3-[[4-[4-[[(3S)-2,6-dioxo-3-piperidyl]amino]-2-fluoro-phenyl]piperazin-1-yl]methyl]cyclobutyl]pyrazol-4-yl]pyrazolo[1,5-a]pyrazin-4-yl]-2-pyridyl]-N-cyclobutyl-4-ethyl-piperidine-4-carboxamide]
2 | ++++ (<50 nM = ++++) | < 30% | < 0.05 µM | ++++ (<50 nM = ++++) | < 30% | < 0.05 µM |  |  |  |  |  |  | CCC1(C(=O)NC2CCOCC2)CCN(c2ccc(-c3nc(-c4cnn([C@H]5CC[C@H](N6CCC(c7ccc(N[C@@H]8CCC(=O)NC8=O)cc7F)CC6)CC5)c4)cn4ncc(C#N)c34)cn2)CC1 (stereo in doubt) [Compound 143, 1-(5-(3-cyano-6-(1-((1R,4r)-4-(4-(4-(((R)-2,6-dioxopiperidin-3-yl)amino)-2-fluorophenyl)piperidin-1-yl)cyclohexyl)-1H-pyrazol-4-yl)pyrazolo[1,5-a]pyrazin-4-yl)pyridin-2-yl)-4-ethyl-N-(tetrahydro-2H-pyran-4-yl)piperidine-4-carboxamide]
3 |  | < 30% | < 0.1 µM |  |  |  | ++++ (< 30% = ++++) | ++++ (< 50 nM = ++++) | < 0.1 µM | ++++ (< 50 nM = ++++) | < 0.05 µM | < 30% | N#Cc1cnn2cc(-c3ccc(N4CCN(C(=O)CN5CCC(c6ccc(NC7CCC(=O)NC7=O)cc6)CC5)CC4)cc3)cc(-c3ccc(N4CCN(CCc5ccccn5)CC4)nc3)c12 (stereo not shown) [Compound 18, 6-(4-(4-(2-(4-(4-((2,6-Dioxopiperidin-3-yl)amino)phenyl)piperidin-1-yl)acetyl)piperazin-1-yl)phenyl)-4-(6-(4-(2-(pyridin-2-yl)ethyl)piperazin-1-yl)pyridin-3-yl)pyrazolo[1,5-a]pyridine-3-carbonitrile]
4 |  | < 30% | < 0.05 µM |  |  |  | ++++ (< 30% = ++++) | ++++ (< 50 nM = ++++) | < 0.05 µM | ++++ (< 50 nM = ++++) | < 0.05 µM | < 30% | CC(C)NC(=O)C1(C)CCN(c2ccc(-c3cc(-c4ccc(N5CCN(C(=O)CN6CCC(c7ccc(NC8CCC(=O)NC8=O)cc7)CC6)CC5)cc4)cn4ncc(C#N)c34)cn2)CC1 (stereo not shown) [Compound 35, 1-(5-(3-Cyano-6-(4-(4-(2-(4-(4-((2,6-dioxopiperidin-3-yl)amino)phenyl)piperidin-1-yl)acetyl)piperazin-1-yl)phenyl)pyrazolo[1,5-a]pyridin-4-yl)pyridin-2-yl)-N-isopropyl-4-methylpiperidine-4-carboxamide]
5 | ++++ (<50 nM = ++++) | < 30% | < 0.05 µM | ++++ (<50 nM = ++++) | < 30% | < 0.05 µM |  |  |  |  |  |  | N#Cc1cnn2cc(-c3cnn(C4CCN(C(=O)CC5(O)CCN(c6ccc(NC7CCC(=O)NC7=O)cc6F)CC5)CC4)c3)nc(-c3ccc(N4CCC5(CC4)OCc4cccnc45)nc3)c12 (stereo not shown) [Compound 113, 6-[1-[1-[2-[1-[4-[(2,6-dioxo-3-piperidyl)amino]-2-fluoro-phenyl]-4-hydroxy-4-piperidyl]acetyl]-4-piperidyl]pyrazol-4-yl]-4-(6-spiro[5H-furo[3,4-b]pyridine-7,4′-piperidine]-1′-yl-3-pyridyl)pyrazolo[1,5-a]pyrazine-3-carbonitrile]
6 | ++++ (<50 nM = ++++) | < 30% | < 0.05 µM | ++++ (<50 nM = ++++) | < 30% | < 0.05 µM |  |  |  |  |  |  | N#Cc1cnn2cc(-c3cnn(C4CCN(C(=O)CC5(O)CCN(c6ccc(NC7CCC(=O)NC7=O)cc6F)CC5)CC4)c3)cc(-c3ccc(N4CCC(c5ccc(O)cc5)CC4)nc3)c12 (stereo not shown) [Compound 197, 6-[1-[1-[2-[1-[4-[(2,6-dioxo-3-piperidyl)amino]-2-fluoro-phenyl]-4-hydroxy-4-piperidyl]acetyl]-4-piperidyl]pyrazol-4-yl]-4-[6-[4-(4-hydroxyphenyl)-1-piperidyl]-3-pyridyl]pyrazolo[1,5-a]pyridine-3-carbonitrile]

Row | Structure (SMILES) | 293T.165 RET(KD: 658-1114 G810R) 6.0 hours (IP) [nM] (RET(KD: 658-1114 G810R)) | Emax (RET(KD: 658-1114 G810R)) | DC50 (RET(KD: 658-1114 G810R); [1]) | 293T.144 RET (658-1114) 6.0 hours (IP) [nM] (RET (658-1114)) | Emax (RET (658-1114); % remaining protein) | DC50 (RET (658-1114); [1]) | 293T.165 RET(KD: 658-1114 G810R) 6.0 hours (Emax) (RET(KD: 658-1114 G810R); HiBiT-Degradation) | 293T.165 RET(KD: 658-1114 G810R) 6.0 hours (IP) [nM] (RET(KD: 658-1114 G810R); HiBiT-Degradation) | DC50 (RET(KD: 658-1114 G810R); HiBiT-Degradation) | 293T.144 RET (658-1114) 6.0 hours (IP) [nM] (RET (658-1114); HiBiT-Degradation) | DC50 (RET (658-1114); HiBiT-Degradation) | Emax (RET (658-1114); HiBiT-Degradation)
7 | N#Cc1cnn2cc(-c3cnn([C@H]4CC[C@H](N5CCN(c6ccc(N[C@@H]7CCC(=O)NC7=O)cc6F)CC5)CC4)c3)nc(-c3ccc(N4CC5COCC(C4)N5Cc4ccccn4)nc3)c12 (single isomer, unassigned) [Compound 156] | ++++ (<50 nM = ++++) | < 30% | < 0.05 µM | ++++ (<50 nM = ++++) | < 30% | < 0.05 µM |  |  |  |  |  | 
8 | COc1ccc(CN2C[C@H]3COC[C@@H](C2)N3c2ccc(-c3nc(-c4cnn([C@H]5CC[C@H](N6CCN(c7ccc(NC8CCC(=O)NC8=O)cc7F)CC6)CC5)c4)cn4ncc(C#N)c34)cn2)cn1 (stereo partly drawn) [Compound 160, 6-[1-[4-[4-[4-[(2,6-dioxo-3-piperidyl)amino]-2-fluoro-phenyl]piperazin-1-yl]cyclohexyl]pyrazol-4-yl]-4-[6-[(1R,5S)-7-[(6-methoxy-3-pyridyl)methyl]-3-oxa-7,9-diazabicyclo[3.3.1]nonan-9-yl]-3-pyridyl]pyrazolo[1,5-a]pyrazine-3-carbonitrile] | ++++ (<50 nM = ++++) | < 30% | < 0.05 µM | ++++ (<50 nM = ++++) | < 30% | < 0.05 µM |  |  |  |  |  | 
9 | COc1ccc(CN2C3COCC2CN(c2ccc(-c4nc(-c5cnn([C@H]6CC[C@H](N7CCN(c8cc(OC)c(NC9CCC(=O)NC9=O)cc8F)CC7)CC6)c5)cn5ncc(C#N)c45)cn2)C3)cn1 (stereo partly shown) [Compound 165, 6-[1-[4-[4-[4-[(2,6-dioxo-3-piperidyl)amino]-2-fluoro-5-methoxy-phenyl]piperazin-1-yl]cyclohexyl]pyrazol-4-yl]-4-[6-[9-[(6-methoxy-3-pyridyl)methyl]-3-oxa-7,9-diazabicyclo[3.3.1]nonan-7-yl]-3-pyridyl]pyrazolo[1,5-a]pyrazine-3-carbonitrile] | +++ (<100 nM = +++) | < 30% | < 0.1 µM | ++++ (<50 nM = ++++) | < 30% | < 0.05 µM |  |  |  |  |  | 
